In patent US11000481B2, “Composite preparation of mosapride and rabeprazole” (KOREA UNITED PHARM. INC., priority 2015, dated 2021):
Where two headings read alike, the source gives them in different places.

Key:
[1] = Stability of rabeprazole sodium depending on pH; format: physicochemical; details: condition of pH 9.0
Description: Accordingly, it was difficult to conduct a dissolution test for the rabeprazole sodium drug in general conditions.

[2] = exposed to an acidic condition of pH 6.8 or below; conventionally known; cited from earlier work

Stability of rabeprazole sodium [1]: highly stable
SMILES: COCCCOc1ccnc(C[S+]([O-])c2nc3ccccc3[nH]2)c1C (centres unmarked) [rabeprazole sodium]
Stability of rabeprazole sodium [2]: degraded
